RP-LC retention time data for 79 compounds are collected here from the METLIN SMRT retention time set (Domingo-Almenara et al. 2019).

The series in a line: gradient 5% acetonitrile 3 min, to 50% in 2 min, to 85% in 15 min, held 3 min, 100 µL/min. Particulars: column: Zorbax Extend-C18 2.1 x 50 mm; eluents: water / acetonitrile, 0.1% formic acid. A digest of the protocol:
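Each retention time is based on an adduct peak selected computationally and verified by manual inspection. Measurements used HPLC–quadrupole time-of-flight mass spectrometry in positive and negative ionization mode on mixtures of ~100 pure standards. Chromatography ran on a Zorbax Extend-C18 column (2.1 × 50 mm, 1.8 μm) at 100 μL/min with water and acetonitrile, each containing 0.1% formic acid, and dead and dwell volumes of 40 μL and 900 μL.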
On to `CC1CCC(NC(=O)CN2C(=O)CCCc3cc(S(=O)(=O)N4CCCCC4)ccc32)CC1` (centres undefined), for which the RP-LC retention time was 945 s.
In the case of `CN1CCN(CCNC(=O)CC2CCN(C(=O)c3cc4cc(Cl)ccc4[nH]3)CC2)CC1` it was 618 s; in that of `COC(=O)CC(NC(=O)N1CCCn2nc(-c3cccnc3)cc2C1)c1ccccc1` (centres undefined), 596 s; in that of `Cc1ccc(C(O)CN2CCN(c3ccccn3)CC2)cc1` (centres undefined), 550 s.
In the case of `CCCCn1c(=O)c2ccccc2n(Cc2nc(-c3ccc(Cl)cc3)no2)c1=O` it was 1280 s; in that of `C[C@H]1CN(C(=O)c2cc(F)cc(F)c2)C[C@@H]1c1nc(-c2ccncc2)no1`, 781 s.
In the case of `COc1cn2c(cc1=O)C(=O)N(CCNC(=O)c1c(F)cccc1Cl)CC2` it was 660 s.
In the case of `O=C(CSc1nccc(-c2ccc3c(c2)OCO3)n1)c1ccc2c(c1)OCO2`, the RP-LC retention time worked out at 888 s.
With `COc1ccc(Cl)cc1NC(=O)C1CCCN(c2cc(=O)n(C)c(=O)n2C)C1` (centres undefined) the figure was 786 s; with `COc1ccc(S(=O)(=O)NCc2ccc3c(c2)CCN3C(C)=O)cc1Cl`, 779 s.
With `CCOC(=O)c1c(NC(=O)CN2CCN(CC)CC2)sc(C)c1C` the figure was 596 s; with `COC(=O)CNC(=O)NC(Cc1ccccc1)Cc1ccc2c(c1)OCO2` (centres undefined), 810 s; with `COc1ccc(-c2nc3cnccn3c2Nc2ccc(C)c(Cl)c2)cc1OC`, 878 s.
With `Cc1ccc(CN2CCN(C3CCN(S(=O)(=O)c4ccc(F)c(F)c4)CC3)C(=O)C2=O)cc1` the figure was 880 s; with `COc1ccc(C2Cn3nnc(-c4nc(-c5ccccc5OC)no4)c3CO2)cc1` (centres undefined), 1010 s; with `Cc1ccccc1Nc1c(-c2ccccc2O)nc2ccc(Cl)cn12`, 1040 s.
Compound `CCN1C(=O)COc2ccc(-c3noc(C4CCN(C(C)=O)CC4)n3)cc21` registered an RP-LC retention time of 744 s.
With `CCOC(=O)c1c(S(=O)(=O)N2CCC(C(=O)Nc3ccc(C)cc3)CC2)c(C)n(C)c1C` the figure was 886 s; with `COc1ccccc1OCCC1CCN(C(=O)CCS(=O)(=O)c2ccc3c(c2)CCN3C(C)=O)C1` (centres undefined), 788 s; with `Cc1c(CNCC2CCCO2)c(C(=O)O)c(C)n1Cc1cccc(Cl)c1` (centres undefined), 717 s.
With `COc1ccccc1NC(=O)Oc1cccc(OC(=O)c2ccccc2)c1` the figure was 653 s; with `COc1ccc(Nc2nc(N3CCN(c4ccccc4OC)CC3)nc3c2C(=O)CCC3)cc1`, 1170 s.
With `O=S(=O)(c1ccc2c(c1)-c1oncc1CO2)N1CCN(c2ccccc2)CC1` the figure was 1030 s.
The compound `CCc1nncn1C1CCN(C(=O)Nc2ccc(F)c(Cl)c2)C1` (centres undefined) had an RP-LC retention time of 661 s.
In turn, `CCOC(=O)C1CCN(C(=O)CN2C(=O)COc3ccc(C(=O)N(C)C)cc32)CC1` gave an RP-LC retention time of 648 s.
In the case of `CCn1cnc2c1CN(C(=O)c1ccc3c(c1)OCO3)CC2`, the RP-LC retention time was 564 s.
In the case of `COCCN1C(=O)[C@H]2CN(Cc3cc(Br)ccc3OC)C[C@H]2C1=O` it was 633 s.
In the case of `COc1ccc(CN2CCc3nc(N4CCN(c5ccccn5)CC4)ncc3C2)c(OC)c1OC` it was 555 s; in that of `CN(CCc1noc(-c2ccc(C(=O)N3CCN(c4ccccn4)CC3)cc2)n1)C(=O)c1ccccc1`, 625 s; in that of `O=C(NCCN1CCC(Cc2ccccc2)CC1)c1ccc2c(c1)NC(=O)C1CCCCN21` (centres undefined), 693 s.
With `CSc1ccc(CNC(=O)c2c(C)sc3ccn(C)c(=O)c23)cc1` the figure was 784 s; with `CCc1noc(-c2ccc(-n3ncc(C(=O)N4CCSCC4)c3C)nc2)n1`, 893 s; with `O=S(=O)(NCc1ccc(Br)cc1)c1ccc2c(c1)-c1oncc1CO2`, 958 s.
`Cc1ccn2cc(-c3ccc(C)c(NS(=O)(=O)c4ccccc4)c3)nc2c1` yielded an RP-LC retention time of 655 s.
In the case of `O=C1[C@H]2CN(Cc3ccccc3F)C[C@H]2C(=O)N1Cc1ccc2c(c1)OCO2` it was 792 s; in that of `CCCn1nc(CNC(=O)c2cccs2)c2ccccc21`, 785 s.
With `COc1ccc(NC(=O)c2nc(N3CCC(C)CC3)c3cnn(C)c3n2)cc1` the figure was 966 s.
With `O=C(CCC1CCN(c2cc(NC3CC3)ncn2)CC1)NCCc1cccs1` the figure was 656 s.
`COCCc1noc(-c2nc(-c3ccc(OC)cc3)no2)n1` displayed an RP-LC retention time of 976 s.
In the case of `CCN1C(=O)CCc2cc(NC(=O)c3ccsc3)ccc21` it was 715 s.
With `O=C(NCc1ccccc1F)c1ccc(CN2CCN(Cc3ccccc3)C(=O)C2=O)cc1` the figure was 770 s; with `Cc1nc(OCC(=O)Nc2cc(Cl)ccc2Cl)c2ccccc2n1`, 836 s.
In the case of `COc1ccccc1-c1nc(Cn2c(=O)c3c(C)cc(C)nc3n(C)c2=O)c(C)o1` it was 1070 s; in that of `O=c1ccc(-c2ccc3c(c2)OCO3)nn1CCc1nc(-c2ccc(Br)cc2)no1`, 1050 s; in that of `CC1(C)C(=O)N(CC(=O)Nc2cccc(F)c2)c2ccccc21`, 886 s.
`CCC(C)NC(=O)Cn1c(=O)ccc2cc(S(=O)(=O)N3CCC(C)CC3)ccc21` (centres undefined) came in with an RP-LC retention time of 833 s.
With `COc1ccc(N2CCN(c3nccc4ccc(C(=O)NCCC5=CCCCC5)cc34)CC2)cc1` the figure was 888 s; with `Cc1nc(N2CCN(c3ccccn3)CC2)nc2c1C(=O)CCC2`, 583 s.
In the case of `CC(C)(C)c1ccc(C(=O)Nc2cc(-c3ccccn3)no2)cc1` it was 1020 s; in that of `Cc1ccc(N2CC(c3noc(-c4ccc5c(c4)OCO5)n3)CC2=O)cc1` (centres undefined), 957 s; in that of `COc1ccc2cc(C(=O)N3CC(n4cc(COCC5CC5)nn4)C3)[nH]c2c1`, 745 s.
`Cc1ccc(-c2noc(C3CCCN3S(=O)(=O)c3cc(C)c(C)cc3C)n2)cc1` (centres undefined): the RP-LC retention time worked out at 1340 s.
In the case of `CCNC(=O)NC1CCN(c2nc3cccnc3n(Cc3ccccc3)c2=O)CC1` it was 877 s; in that of `COc1ccc(CNC(=O)c2cnc(N3CCC4(CC3)OCCO4)nc2N)c(OC)c1`, 640 s.
With `O=C(NCCCN1CCCCC1)C1CCN(c2cncnc2N2CCCCC2)CC1` the figure was 569 s.
With `COc1ccc(Cl)cc1S(=O)(=O)NCc1c(-c2ccccc2)nc2sc(C)nn12` the figure was 912 s.
For `Cc1ccc(-c2ccc(-n3nc(C)c(S(=O)(=O)Nc4ccc5c(c4)OCCO5)c3C)nn2)cc1`, the RP-LC retention time came out at 1010 s.
In the case of `CCN1C(=O)COc2ccc(-c3noc(-c4cccc(Br)c4)n3)cc21` it was 1280 s; in that of `COCc1noc(CC2CCOC3(CCN(Cc4ccc5c(c4)CCO5)CC3)C2)n1` (centres undefined), 646 s; in that of `COc1cccc(OC)c1OCC(O)CN1CCN(c2ccc(F)cc2)CC1` (centres undefined), 690 s.
In the case of `Cc1cc(CN2CCC(CNC(=O)NCc3cccs3)CC2)c(C)o1` it was 578 s.
Turning to `Cc1cc(N2CCN(S(=O)(=O)c3cccc(Cl)c3)CC2)nc(NC2CCCCC2)n1`, the RP-LC retention time came out at 844 s.
With `COc1ccc(Cl)cc1NC(=O)c1nc2nc(C)cc(C(F)F)n2n1` the figure was 959 s; with `Cc1cccc(NS(=O)(=O)c2cc3c(s2)CCN(C(=O)C2CC2)C3)c1`, 849 s; with `COc1ccc(NC(=O)C2CCCN(c3nccnc3Oc3ccccc3)C2)cc1Cl` (centres undefined), 1050 s.
The compound `CN1C(=O)c2cc(S(=O)(=O)NC3CCCCCC3)ccc2Oc2cccnc21` gave an RP-LC retention time of 1000 s.
With `COCCNC(=O)CSc1nc(-c2ccccc2)[nH]c1-c1ccccc1` the figure was 641 s; with `O=C(Nc1ccc(F)cc1)N1CCCC(Cn2c(C3CC3)nc3cccnc32)C1` (centres undefined), 675 s; with `COCCn1c(=O)c2c(nc3n2CCCN3c2ccccc2)n(C)c1=O`, 738 s.
In the case of `CCOc1coc(C(=O)Nc2cccc(F)c2)cc1=O` it was 695 s; in that of `CCOC(=O)CNC(=O)N1CC(n2cc(COc3ccc(F)cc3)nn2)C1`, 692 s; in that of `O=S(=O)(c1ccccc1Cl)N1CC(F)(F)C[C@H]1CN1CCc2ccccc2C1`, 760 s.
With `Cc1noc(-c2cccc(OC3CN(S(=O)(=O)c4c(C)noc4C)C3)c2)n1` the figure was 964 s.
`CCN(CC)S(=O)(=O)c1cc(-c2nnc(C)o2)co1` displayed an RP-LC retention time of 737 s.
With `COC(=O)C1=CN(c2cccc(OC)c2)c2ccccc2S1(=O)=O` the figure was 776 s; with `O=C(CN1C(=O)c2ccccc2C1=O)NCc1nnnn1-c1ccc(Cl)cc1`, 722 s.
With `Cc1nc(CC(=O)NC2CCCC2)sc1C(=O)NCc1ccccc1` the figure was 734 s; with `CCn1c(=O)c(C)nc2cc(-c3noc(-c4ccc(F)c(F)c4)n3)ccc21`, 1150 s; with `CCOC(=O)CNC(=O)N1CCN(c2nc3ccccc3n(Cc3ccccc3)c2=O)CC1`, 867 s.
